Measurements: PubChem BioAssay AID330 (DTP/NCI, 2004)
“And” between values parts separate entries of the source, which are not always exact repeats. Equal values may be shown once. Inconclusive results and toxic doses are left out.

Test system: P388 leukemia ip, CD2F1 mice, survival T/C
Test: NCI In Vivo Anticancer Drug Screen. Data for tumor model P388 Leukemia (intraperitoneal) in CD2F1 (CDF1) mice
Settings: endpoint: median survival time, higher = longer survival
Outline: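 Mice carrying the transplanted tumor received test compound or vehicle. Survival was recorded in each group, and the value is the treated-group measurement divided by that of the vehicle-treated control group.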

[1] = dose: 100.0 mg/kg/injection, schedule: Q04DX002 (ip), vehicle: saline
[2] = dose: 200.0 mg/kg/injection, schedule: Q04DX002 (ip), vehicle: saline
[3] = dose: 100.0 mg/kg/injection, schedule: Q01DX001 (ip), vehicle: saline with Tween-80
[4] = dose: 50.0 mg/kg/injection, schedule: Q01DX009 (ip), vehicle: saline
[5] = dose: 100.0 mg/kg/injection, schedule: Q01DX009 (ip), vehicle: saline
[6] = dose: 200.0 mg/kg/injection, schedule: Q01DX009 (ip), vehicle: saline
[7] = dose: 50.0 mg/kg/injection, schedule: Q01DX009 (ip), vehicle: Klucel (hydroxypropylcellulose) (HPC)
[8] = dose: 100.0 mg/kg/injection, schedule: Q01DX009 (ip), vehicle: Klucel (hydroxypropylcellulose) (HPC)
[9] = dose: 60.0 mg/kg/injection, schedule: Q01DX005 (ip), vehicle: saline with Tween-80
[10] = dose: 120.0 mg/kg/injection, schedule: Q01DX005 (ip), vehicle: saline with Tween-80
[11] = dose: 240.0 mg/kg/injection, schedule: Q01DX005 (ip), vehicle: saline with Tween-80
[12] = dose: 50.0 mg/kg/injection, schedule: Q01DX005 (ip), vehicle: Klucel (hydroxypropylcellulose) (HPC)
[13] = dose: 100.0 mg/kg/injection, schedule: Q01DX005 (ip), vehicle: Klucel (hydroxypropylcellulose) (HPC)
[14] = dose: 200.0 mg/kg/injection, schedule: Q01DX005 (ip), vehicle: Klucel (hydroxypropylcellulose) (HPC)
[15] = dose: 200.0 mg/kg/injection, schedule: Q01DX009 (ip), vehicle: Klucel (hydroxypropylcellulose) (HPC)

O=C(Cc1ccncc1)c1cccnc1
T/C (dose: 12.5 mg/kg/injection, schedule: Q01DX001 (ip), vehicle: saline): 101 % of control | T/C (dose: 25.0 mg/kg/injection, schedule: Q01DX001 (ip), vehicle: saline): 102 % of control | T/C (dose: 50.0 mg/kg/injection, schedule: Q01DX001 (ip), vehicle: saline): 107 % of control | T/C [1]: 98 % of control | T/C [2]: 99 % of control | T/C (dose: 400.0 mg/kg/injection, schedule: Q04DX002 (ip), vehicle: saline): 105 % of control

Cc1ccc(S(=O)(=O)OC2=C3OC(=O)C4(C3C=CC=C2)C2C=CC=CC24)cc1 (configuration not stated)
T/C [3]: 96 % of control | T/C (dose: 200.0 mg/kg/injection, schedule: Q01DX001 (ip), vehicle: saline with Tween-80): 93 % of control | T/C (dose: 400.0 mg/kg/injection, schedule: Q01DX001 (ip), vehicle: saline with Tween-80): 90 % of control

COC(=O)c1c(C)ccc2c(O)c3c(cc12)C(=O)c1c2c(cc(O)c1C3=O)C1(C)OC(C)(O2)C(O)C(N(C)C)C1O (configuration not stated)
T/C (dose: 25.0 mg/kg/injection, schedule: Q01DX010 (ip), vehicle: saline): 100 % of control | T/C (dose: 50.0 mg/kg/injection, schedule: Q01DX010 (ip), vehicle: saline): 100 % of control | T/C (dose: 100.0 mg/kg/injection, schedule: Q01DX010 (ip), vehicle: saline): 100 % of control | T/C (dose: 200.0 mg/kg/injection, schedule: Q01DX010 (ip), vehicle: saline): 100 % of control | T/C (dose: 400.0 mg/kg/injection, schedule: Q01DX010 (ip), vehicle: saline): 100 % of control

CCCC(=O)O
T/C [4]: 93 % of control | T/C [5]: 91 % of control | T/C [6]: 90 % of control

Cc1c2c(c(C)c3c1[nH]c1ccccc13)C(C#N)N(C(=O)c1ccccc1)C=C2 (configuration not stated)
T/C (dose: 6.25 mg/kg/injection, schedule: Q04DX003 (ip), vehicle: distilled water + Tween-80): 100 % of control | T/C (dose: 12.5 mg/kg/injection, schedule: Q04DX003 (ip), vehicle: distilled water + Tween-80): 102 % of control | T/C (dose: 25.0 mg/kg/injection, schedule: Q04DX003 (ip), vehicle: distilled water + Tween-80): 90 % of control | T/C (dose: 50.0 mg/kg/injection, schedule: Q04DX003 (ip), vehicle: distilled water + Tween-80): 88 % of control | T/C (dose: 100.0 mg/kg/injection, schedule: Q04DX003 (ip), vehicle: distilled water + Tween-80): 90 % of control | T/C (dose: 200.0 mg/kg/injection, schedule: Q04DX003 (ip), vehicle: distilled water + Tween-80): 94 % of control

O=C1CSC(=Nc2ccccc2F)N1c1ccccc1F
T/C [7]: 110 % of control | T/C [8]: 107 % of control

CCCCCCCCc1c(C)nc(N)[nH]c1=O
T/C [9]: 109 % of control | T/C [10]: 94 % of control | T/C [11]: 88 % of control

CCC1(CC)CC1C(=O)O (configuration not stated)
T/C [12]: 93 % of control | T/C [13]: 89 % of control | T/C [14]: 89 % of control

Fc1ccc2nc3ccccc3c(SCCCCCSc3c4ccccc4nc4ccc(F)cc34)c2c1
T/C (dose: 60.0 mg/kg/injection, schedule: Q01DX005 (ip), vehicle: Klucel (hydroxypropylcellulose) (HPC)): 94 % of control | T/C (dose: 120.0 mg/kg/injection, schedule: Q01DX005 (ip), vehicle: Klucel (hydroxypropylcellulose) (HPC)): 90 % of control

CCCCOC(=O)C1C2CCC(O2)C1C(N)=O (configuration not stated)
T/C [9]: 99 % of control | T/C [10]: 100 % of control

OC12CCC(c3ccccc3)(CC1)CC2
T/C [7]: 104 % of control | T/C [8]: 100 % of control | T/C [15]: 100 % of control

CC(C)(C)C(=O)NNc1cccc(Cl)n1
T/C (dose: 50.0 mg/kg/injection, schedule: Q01DX001 (ip), vehicle: Klucel (hydroxypropylcellulose) (HPC)): 109 % of control | T/C (dose: 100.0 mg/kg/injection, schedule: Q01DX001 (ip), vehicle: Klucel (hydroxypropylcellulose) (HPC)): 98 % of control | T/C (dose: 200.0 mg/kg/injection, schedule: Q01DX001 (ip), vehicle: Klucel (hydroxypropylcellulose) (HPC)): 100 % of control

Cn1c(=O)c2c(O)c(-c3ccccc3)c(=O)n3c4ccccc4n(c1=O)c23
T/C [9]: 99 % of control | T/C [10]: 96 % of control | T/C [11]: 97 % of control

Clc1ccc(-c2nc(CSc3ccccn3)cs2)cc1
T/C [4]: 102 % of control | T/C [5]: 109 % of control | T/C [6]: 105 % of control

COc1c2ccc(-c3ccccc3)oc-2cc(=O)c1C
T/C (dose: 2.0 mg/kg/injection, schedule: Q01DX005 (ip), vehicle: Klucel + Tween-80): 100 % of control | T/C (dose: 4.0 mg/kg/injection, schedule: Q01DX005 (ip), vehicle: Klucel + Tween-80): 100 % of control | T/C (dose: 8.0 mg/kg/injection, schedule: Q01DX005 (ip), vehicle: Klucel + Tween-80): 109 % of control | T/C (dose: 16.0 mg/kg/injection, schedule: Q01DX005 (ip), vehicle: Klucel + Tween-80): 92 % of control

Cc1cc(C)c(C#N)c(SC(C(=O)NC(C)(C)C)c2ccccc2)n1 (configuration not stated)
T/C [12]: 88 % of control | T/C [13]: 87 % of control | T/C [14]: 87 % of control

C=C(C)C12OC3(CCCCCCCCC)OC1C1C4OC4(CO)C(O)C4(O)C(=O)C(C)=CC4C1(O3)C(C)C2OC(C)=O (configuration not stated)
T/C (dose: 12.5 micrograms/kg/injection, schedule: Q01DX009 (ip), vehicle: saline + alcohol): 101 % of control | T/C (dose: 25.0 micrograms/kg/injection, schedule: Q01DX009 (ip), vehicle: saline + alcohol): 104 % of control | T/C (dose: 50.0 micrograms/kg/injection, schedule: Q01DX009 (ip), vehicle: saline + alcohol): 104 % of control | T/C (dose: 100.0 micrograms/kg/injection, schedule: Q01DX009 (ip), vehicle: saline + alcohol): 104 % of control | T/C (dose: 200.0 micrograms/kg/injection, schedule: Q01DX009 (ip), vehicle: saline + alcohol): 123 % of control

CC1C(c2ccccc2)OC2N1CN(C(C)(C)C)CC2(C)C (configuration not stated)
T/C (dose: 50.0 mg/kg/injection, schedule: Q01DX009 (ip), vehicle: saline with Tween-80): 100 % of control | T/C (dose: 100.0 mg/kg/injection, schedule: Q01DX009 (ip), vehicle: saline with Tween-80): 104 % of control | T/C (dose: 200.0 mg/kg/injection, schedule: Q01DX009 (ip), vehicle: saline with Tween-80): 105 % of control

COc1ccc(C(=O)[Se][Se]C(=O)c2ccc(OC)cc2)cc1
T/C (dose: 6.25 mg/kg/injection, schedule: Q01DX009 (ip), vehicle: saline with Tween-80): 100 % of control | T/C (dose: 12.5 mg/kg/injection, schedule: Q01DX009 (ip), vehicle: saline with Tween-80): 102 % of control

C1CC[N-]CC1.C1CC[N-]CC1.[Co].[N-]=C=S.[N-]=C=S
T/C [3]: 100 % of control

CN1Cc2c(c3c(n2C)CCCC3=O)C(O)C1 (configuration not stated)
T/C (dose: 50.0 mg/kg/injection, schedule: Q04DX002 (ip), vehicle: saline): 106 % of control | T/C [1]: 100 % of control | T/C [2]: 102 % of control

CCOC(=O)C(Cc1csc2ccc(Cl)cc12)NC(C)=O (configuration not stated)
T/C [7]: 94 % of control | T/C [8]: 95 % of control | T/C [15]: 99 % of control

C[Si](C)(C)O[C@@H]1CCCC1NCC#N (some centres not stated)
T/C (dose: 50.0 mg/kg/injection, schedule: Q01DX005 (ip), vehicle: saline with Tween-80): 101 % of control | T/C (dose: 100.0 mg/kg/injection, schedule: Q01DX005 (ip), vehicle: saline with Tween-80): 101 % of control | T/C (dose: 200.0 mg/kg/injection, schedule: Q01DX005 (ip), vehicle: saline with Tween-80): 92 % of control

CC=O
T/C (dose: 0.5 % in 0.5 ml injection vol, schedule: Q01DX009 (ip), vehicle: water): 100 % of control and 103 % of control and 109 % of control | T/C (dose: 1.0 % in 0.5 ml injection vol, schedule: Q01DX009 (ip), vehicle: water): 104 % of control and 112 % of control | T/C (dose: 2.0 % in 0.5 ml injection vol, schedule: Q01DX009 (ip), vehicle: water): 117 % of control

O=NN(CCCl)C(=O)Nc1ccc(Br)cc1
T/C (dose: 6.25 mg/kg/injection, schedule: Q01DX009 (ip), vehicle: saline): 122 % of control | T/C (dose: 12.5 mg/kg/injection, schedule: Q01DX009 (ip), vehicle: suspension in saline): 150 % of control | T/C (dose: 25.0 mg/kg/injection, schedule: Q01DX009 (ip), vehicle: suspension in saline): 167 % of control | T/C [4]: 122 % of control | T/C (dose: 50.0 mg/kg/injection, schedule: Q01DX009 (ip), vehicle: suspension in saline): 167 % of control
